Experimental findings from patent US20230242526A1 (Zentaur Therapeutics International Limited, priority 2020, published 2023) are described below.

Series [1] has as its system human breast squamous HCC1806 cell line. Briefly: CyQUANT Direct cell proliferation assay, HCC1806. It is filed as cell-based. Conditions: HCC1806, 168 h, 7 days. An excerpt: The human ovarian carcinoma OVCAR3 cell line (ATCC HTB-161™) or human breast squamous HCC1806 cell line (ATCC CRL 2335) were obtained from American Type Culture Collection (ATCC), and maintained in culture media according to the supplier's specification.
The CyQUANT® Direct Cell Proliferation Assay Kit (Invitrogen™, catalog No. G35012) was utilized to test the inhibitory activities of the CDK2 inhibitors described in this disclosure against OVCAR3 or HCC1806 tumor cells.
CyQUANT® Direct Cell Proliferation Assay: The spent medium from the purchased tumor cell culture plate was removed and the tumor cells were washed with PBS buffer twice. Trypsin (VWR catalog No. 0458-25G) was added to digest the tumor cells until tumor cells appeared round shaped and to dissociate adherent cells from the plate wall in which they are being cultured. Then RPMI-1640 media (HCC1806, Gibco™ catalog No, A10491-01) with 10% fetal bovine serum (FBS) (Hyclone™ catalog No. SV30160.03), or RPMI-1640 media (OVCAR-3, Gibco™ catalog No. 10370-021) with 20% FBS and 0.01 mg/mL insulin was added to stop the trypsin digestion reaction. The tumor cells were lightly agitated with a liquid transfer pipette to cause tumor cells suspended in the culture media. The cells were counted. The complete medium was used to prepare tumor cell suspension.
OVCAR3 or HCC1806 cells were seeded at 40 μL/well in 384-well plates in growth media containing FBS and cultured 24 hours in the incubator at 37° C., 5% CO2. […] Compound solutions were added by Agilent Bravo liquid handler. […] The control wells contained the growth medium having 0.1% DMSO. Cells were incubated at 37° C., 5% CO2 for 7 days.
CYQUANT Direct Cell Proliferation Assay (Molecular Probes, Eugene, Oreg.) was then performed following manufacturer's instructions to prepare the detection reagents. 50 μL of detection reagent was aliquot and added to each well and the cells were incubated at 37° C. for 1 hr.
The cell culture plates were placed on TECAN M1000 microplate reader to detect the fluorescence intensity at 508 nm excitation and 527 nm emission wavelengths. Graphpad Prism 6.0 software was used for data processing, preparing cell growth curve, calculating percentage inhibition on cell growth. IC50 values were calculated by concentration-response curve fitting utilizing a four-parameter analytical method using GraphPad Prism software.

The next series relates to HCC1806 s.c. xenografts. Briefly: HCC1806 s.c. breast cancer xenograft efficacy (tumor volume, relative tumor volume, tumor weight, TGI). Format: in vivo, BALB/c nude mice. Conditions: 30 mg/kg P.O. BID; for Tumor Growth Inhibition D3 / Tumor Growth Inhibition D7 / Tumor Growth Inhibition D10 / Tumor Growth Inhibition D14 / Tumor Growth Inhibition D17 / Tumor Growth Inhibition D21: vs control vehicle; for Tumor Growth Inhibition D3 / Tumor volume D3: day 3; for Tumor Growth Inhibition D7 / Tumor volume D7: day 7; for Tumor Growth Inhibition D10 / Tumor volume D10: day 10; for Tumor Growth Inhibition D14 / Tumor volume D14: day 14; for Tumor Growth Inhibition D17 / Tumor volume D17: day 17; for Tumor Growth Inhibition D21 / Tumor volume D21: day 21; for Tumor volume D0 / Tumor volume D3 / Tumor volume D7 / Tumor volume D10 / Tumor volume D14 / Tumor volume D17 / Tumor volume D21 / Tumor weight: group mean; for Tumor volume D0: day 0; for Tumor weight: end of the study (Day 21). How it is done: The in vivo potency of anti-tumor activities of Comp. 4, Comp. 37, Comp. 5, Comp. 28, Comp. 163, and Comp. 164 have been evaluated on the growth of HCC1806 s.c. xenografts in BALB/c nude mice.
The testing compounds Comp. 4, Comp. 37, Comp. 5, Comp. 28, Comp. 163, and Comp. 164 were prepared according the synthetic routes set forth in the above Examples. The testing formulations for compounds Comp. 4, Comp. 37, Comp. 5, Comp. 28, Comp. 163, and Comp. 164 were prepared as liquid formulation in a liquid vehicle containing 0.1% Tween-80 (purchased form Sinopharm Chemical Reagent Co., Ltd, Lot No. 20190322), 0.5% methyl cellulose (purchased from SIGMA, Lot No. SLBR8963V) in water.
A total of 42+8 female BALB/c nude mice were ordered from Shanghai LC Laboratory Animal Co. Ltd. The animals were specific pathogen free and approximately 4-5 weeks old upon arrival at PharmaLegacy Laboratories.
HCC1806 cell cultures were maintained at 37° C. under 5% CO2 in RPMI-1640 medium supplemented with 10% FBS and were subsequently cultured within 10 passages before inoculated into the mice.
(§1) When the average tumor volume reached 80-120 mm^3, 42 tumor-bearing mice were randomized into 7 groups (6 mice per group) according to tumor volume. The grouping day was defined as Day 0. Treatment was applied immediately after grouping animals on the same day.
(§2) The body weight of the testing animals were measured twice a week after grouping. Tumor volumes by the length and width of the tumor were measured by electric calipers and the tumor volume (V) was calculated as follows: V=(length×width^2)/2. The individual relative tumor volume (RTV) was calculated as follows: RTV=Vt/V0, where Vt was the volume on each day, and V0 was the volume at the beginning of the treatment.
Tumors were collected at the end of the study (Day 21), the mice were sacrificed. Tumor was collected, weighed, photographed.
(§3) Results were expressed as mean±S.E.M. Comparisons between two groups were made by corresponding test, p<0.05 were considered to be significant.

Series [2] can be described thus: Body weight in the HCC1806 xenograft study. Conditions: group mean, 30 mg/kg P.O. BID; for Body weight D0: day 0; for Body weight D3: day 3; for Body weight D7: day 7; for Body weight D10: day 10; for Body weight D14: day 14; for Body weight D17: day 17; for Body weight D21: day 21. Format: in vivo, BALB/c nude mice. How it is done:
as §1, §2, §3

Regarding `C[C@@]1(O)CCC[C@H]1n1c(=O)c(C(F)F)cc2cnc(NC3CCN(S(C)(=O)=O)CC3)nc21` (racemic) [Comp. 2, (±)-8-(2-hydroxy-2-methylcyclopentyl)-6-difluoromethyl-2-((1-(methylsulfonyl)piperidin-4-yl)amino)pyrido[2,3-d]pyrimidin-7(8H)-one, reference compound], in series [1], the IC50 amounted to 59 nM. This lies in the double-digit nanomolar range.
The same measure, in the same setting: next, `[2H]C1([2H])CN(S(C)(=O)=O)CC([2H])([2H])C1Nc1ncc2cc(C)c(=O)n([C@@H]3CCC[C@@]3(C)O)c2n1` [Comp. 67, (−)-8-((1R,2R)-2-hydroxy-2-methylcyclopentyl)-6-methyl-2-((1-(methylsulfonyl)piperidin-4-yl-3,3,5,5-d4)amino)pyrido[2,3-d]pyrimidin-7(8H)-one]: 65.9 nM.
The same measure, in the same setting: next, `[2H]C([2H])([2H])S(=O)(=O)N1CCC(Nc2ncc3cc(C)c(=O)n([C@@H]4CCC[C@@]4(C)O)c3n2)CC1` [Comp. 74, (−)-8-((1R,2R)-2-hydroxy-2-methylcyclopentyl)-6-methyl-2-((1-((methyl-d3)sulfonyl)piperidin-4-yl)amino)pyrido[2,3-d]pyrimidin-7(8H)-one]: 83.7 nM; `[2H]C([2H])([2H])S(=O)(=O)N1CCC(Nc2ncc3cc(C(F)F)c(=O)n([C@@H]4CCC[C@@]4(C)O)c3n2)CC1` [Comp. 85, (−)-6-(difluoromethyl)-8-((1R,2R)-2-hydroxy-2-methylcyclopentyl)-2-((1-((methyl-d3)sulfonyl)piperidin-4-yl)amino)pyrido[2,3-d]pyrimidin-7(8H)-one]: 84.5 nM; `[2H]C(F)(F)c1cc2cnc(NC3CCN(S(=O)(=O)C([2H])([2H])[2H])CC3)nc2n([C@@H]2CCC[C@@]2(C)O)c1=O` [Comp. 92, (−)-6-(difluoromethyl-d)-8-((1R,2R)-2-hydroxy-2-methylcyclopentyl)-2-((1-((methyl-d3)sulfonyl)piperidin-4-yl)amino)pyrido[2,3-d]pyrimidin-7(8H)-one]: 67.7 nM.
Turning to `[2H]C1(Nc2ncc3cc(C(F)F)c(=O)n([C@@H]4CCC[C@@]4(C)O)c3n2)CCN(S(C)(=O)=O)CC1` [Comp. 99, (−)-6-(difluoromethyl)-8-((1R,2R)-2-hydroxy-2-methylcyclopentyl)-2-((1-(methylsulfonyl)piperidin-4-yl-4-d)amino)pyrido[2,3-d]pyrimidin-7(8H)-one], half-maximal inhibition in series [1] (IC50) required 65.5 nM.
For the compound `[2H]C([2H])([2H])c1cc2cnc(NC3([2H])C([2H])([2H])CN(S(=O)(=O)C([2H])([2H])[2H])CC3([2H])[2H])nc2n([C@@H]2CCC[C@@]2(C)O)c1=O` [Comp. 163, (−)-8-((1R,2R)-2-hydroxy-2-methylcyclopentyl)-6-(methyl-d3)-2-((1-((methyl-d3)sulfonyl)piperidin-4-yl-3,3,4,5,5-d5)amino)pyrido[2,3-d]pyrimidin-7(8H)-one], in the series on HCC1806 s.c. xenografts, the “tumor volume compared with G1 vehicle on each day” value is “significant smaller tumor volume on day 7, 17 and 21”; the “tumor weight at the end of the study, in words” value was “lighter tumor but no statistic significance”; the “Tumor Growth Inhibition D3” value was found to be 38.81%; the “Tumor Growth Inhibition D7” value was 34.97%. In the series on HCC1806 s.c. xenografts, the “Tumor Growth Inhibition D10” value is 34.46%, the “Tumor Growth Inhibition D14” value worked out at 30.36%, the “Tumor Growth Inhibition D17” value turned out to be 36.67% and the “Tumor Growth Inhibition D21” value is 40.94%. In the series on HCC1806 s.c. xenografts, the “Tumor volume D0” value amounted to 110.66 mm^3, the “Tumor volume D3” value is on record as 223.62 mm^3, the “Tumor volume D7” value came out at 443.83 mm^3 and the “Tumor volume D10” value stood at 702.37 mm^3. For the same compound, in the series with HCC1806 s.c. xenografts, the “Tumor volume D14” value stood at 1048.55 mm^3, the “Tumor volume D17” value is reported as 1257.00 mm^3, the “Tumor volume D21” value worked out at 1397.61 mm^3 and the Tumor weight was found to be 2.20 g. For the same compound, in series [2], the “Body weight D0” value came to 17.54 g, the “Body weight D3” value was determined as 17.61 g, the “Body weight D7” value is given as 17.72 g and the “Body weight D10” value stood at 17.67 g. In addition, in series [2], the “Body weight D14” value is on record as 18.32 g, the “Body weight D17” value is recorded as 18.66 g and the “Body weight D21” value turned out to be 17.95 g.
Take `[2H]C([2H])([2H])c1cc2cnc(NC3([2H])C([2H])([2H])CN(S(C)(=O)=O)CC3([2H])[2H])nc2n([C@@H]2CCC[C@@]2(C)O)c1=O` [Comp. 164, (−)-8-((1R,2R)-2-hydroxy-2-methylcyclopentyl)-6-(methyl-d3)-2-((1-(methylsulfonyl)piperidin-4-yl-3,3,4,5,5-d5)amino)pyrido[2,3-d]pyrimidin-7(8H)-one]: in the series on HCC1806 s.c. xenografts, the “tumor weight at the end of the study, in words” value is listed as “lighter tumor but no statistic significance”; the “Tumor Growth Inhibition D3” value amounted to 29.37%; the “Tumor Growth Inhibition D7” value worked out at 15.49%; the “Tumor Growth Inhibition D10” value is on record as 21.94%. Moreover, in the series with HCC1806 s.c. xenografts, the “Tumor Growth Inhibition D14” value was determined as 18.56%, the “Tumor Growth Inhibition D17” value is listed as 29.97%, the “Tumor Growth Inhibition D21” value was found to be 31.27% and the “Tumor volume D0” value is reported as 112.74 mm^3. In addition, in the series on HCC1806 s.c. xenografts, the “Tumor volume D3” value worked out at 243.14 mm^3, the “Tumor volume D7” value turned out to be 545.66 mm^3, the “Tumor volume D10” value came out at 817.53 mm^3 and the “Tumor volume D14” value was found to be 1209.55 mm^3. Besides, in the series on HCC1806 s.c. xenografts, the “Tumor volume D17” value came out at 1380.25 mm^3, the “Tumor volume D21” value is given as 1610.30 mm^3 and the Tumor weight was 2.51 g. Further, in series [2], the “Body weight D0” value was 18.47 g, the “Body weight D3” value amounted to 18.47 g, the “Body weight D7” value is 18.70 g and the “Body weight D10” value amounted to 18.37 g. In series [2], the “Body weight D14” value stood at 17.86 g, the “Body weight D17” value is 18.20 g and the “Body weight D21” value was 17.29 g.
